Reference: patent publication US8198311B2, “Modulators of glucocorticoid receptor, AP-1, and/or NF-κB activity and use thereof” (Bristol-Myers Squibb Company, priority 2006, dated 2012)
Read-outs that look alike come from different tables or passages of the source.

Assays:
[1] = tested on: AP-1 induced transcriptional activity; assay: Cellular Transrepressional Assay (AP-1 luciferase reporter in A549 cells, PMA-activated); format: cell-based; details: pAP-1-Luc, 10 ng/ml PMA, read-out: AP-1 (EC50, nM) (Cellular Transrepression Assay)
Method in brief: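 A549 cells stably carrying a 7×AP-1-luciferase reporter, stimulated with 10 ng/ml PMA with or without compound (0.1 nM-40 μM) for 7 h. Luciferase luminescence read 10 min after reagent addition; repression is percentage decrease of PMA-alone signal, EC50 by curve fitting.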

[2] = target: T1, human full-length glucocorticoid receptor (Homo sapiens, UniProt P04150); assay: Glucocorticoid Receptor Binding Assay (II), fluorescence polarization competitor kit (Fluormone GS1); details: cell lysate with recombinant human full-length GR
T1 construct: recombinantly expressed human full-length glucocorticoid receptor; purchased PanVera Co., Madison, Wis; P2816
T1 sequence (P04150 1-777): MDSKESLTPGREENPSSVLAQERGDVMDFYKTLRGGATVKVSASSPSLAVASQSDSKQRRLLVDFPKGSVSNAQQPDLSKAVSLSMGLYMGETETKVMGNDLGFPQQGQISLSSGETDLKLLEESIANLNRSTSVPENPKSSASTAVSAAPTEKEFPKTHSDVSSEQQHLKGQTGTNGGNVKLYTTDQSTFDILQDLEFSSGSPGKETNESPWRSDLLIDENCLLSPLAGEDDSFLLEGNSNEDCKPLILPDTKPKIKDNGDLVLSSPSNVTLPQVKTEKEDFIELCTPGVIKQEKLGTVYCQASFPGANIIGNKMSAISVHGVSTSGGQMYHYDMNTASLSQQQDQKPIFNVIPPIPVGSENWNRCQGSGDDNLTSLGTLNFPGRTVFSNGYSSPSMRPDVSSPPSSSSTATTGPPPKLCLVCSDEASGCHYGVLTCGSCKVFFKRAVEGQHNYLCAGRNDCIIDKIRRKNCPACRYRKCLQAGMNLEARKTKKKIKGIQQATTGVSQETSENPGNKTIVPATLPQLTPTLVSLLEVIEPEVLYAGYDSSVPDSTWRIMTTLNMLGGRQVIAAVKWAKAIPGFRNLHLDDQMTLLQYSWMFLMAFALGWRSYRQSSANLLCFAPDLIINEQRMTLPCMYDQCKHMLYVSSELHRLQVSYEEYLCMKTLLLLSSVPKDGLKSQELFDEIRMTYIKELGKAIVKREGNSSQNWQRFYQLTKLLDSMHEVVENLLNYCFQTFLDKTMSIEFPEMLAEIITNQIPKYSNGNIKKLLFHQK
Protocol: In order to measure the binding of compounds on the glucocorticoid receptor a commercially available kit was used (Glucocorticoid receptor competitor assay kit, PanVera Co., Madison, Wis., P2816). Briefly, a cell lysate containing recombinantly expressed human full-length glucocorticoid receptor was mixed with a fluorescently labeled glucocorticoid (1 nM Fluormone GS1) in the presence or absence of test compound. After one hour at room temperature, the fluorescence polarization (FP) of the samples were measured. […] Test molecules were analyzed in the concentration range from 2.4 nM to 40 microMolar.

[3] = target: T2, human glucocorticoid receptor (Homo sapiens, UniProt P04150); assay: Glucocorticoid Receptor Binding Assay (I), fluorescence polarization competitor kit (Fluormone GS Red); details: purified human recombinant full-length GR
T2 construct: purified human recombinant full-length glucocorticoid receptor (2 nM); purchased Invitrogen Part # 2893
T2 sequence (P04150 1-777): T1 sequence (P04150 1-777)
Method in brief: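 Fluorescence polarization competition: full-length recombinant human GR (2 nM) incubated with 1 nM Fluormone GS Red plus test compound (8.5E-05 to 5 μM) for 2 h at room temperature in the dark before FP read-out.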

| Compound | EC50 ([1]; Homo sapiens, A549, 7 h) [nM] | Ki [2] [nM] | EC50 ([1]; 7 hours) [nM] | Ki [3] [nM] |
| --- | --- | --- | --- | --- |
| Cn1ncc2cc([C@H](c3ccccc3)C(C)(C)CNS(=O)(=O)CC(F)(F)F)ccc21 [Example 85, (S)—N-(2,2-Dimethyl-3-(1-methyl-1H-indazol-5-yl)-3-phenylpropyl)-2,2,2-trifluoroethanesulfonamide] | > 10000 | 2890 |  |  |
| CC(C)CC(c1ccc2c(cnn2-c2ccc(F)cc2)c1)C(C)(C)CNC(=O)NCC(F)(F)F (single isomer, unassigned) [Example 58B, 1-(3-(1-(4-fluorophenyl)-1H-indazol-5-yl)-2,2,5-trimethylhexyl)-3-(2,2,2-trifluoroethyl)urea] |  | 8.8 | 106 |  |
| CC(C)CC(c1ccc2c(cnn2-c2ccc(F)cc2)c1)C(C)(C)CNS(=O)(=O)CC(F)(F)F (single isomer, unassigned) [Example 57B, 2,2,2-trifluoro-N-(3-(1-(4-fluorophenyl)-1H-indazol-5-yl)-2,2,5-trimethylhexyl)-ethanesulfonamide] |  | 15 | > 10000 |  |
| CC(C)CC(c1ccc2c(cnn2-c2ccc(F)cc2)c1)C(C)(C)CNS(=O)(=O)CC(F)(F)F (single isomer, unassigned) [Example 57A, 2,2,2-trifluoro-N-(3-(1-(4-fluorophenyl)-1H-indazol-5-yl)-2,2,5-trimethylhexyl)-ethanesulfonamide] | > 10000 | 59 |  |  |
| CC(C)n1ncc2cc([C@H](c3ccccc3)C(C)(C)CNS(=O)(=O)CC(F)(F)F)ccc21 [Example 87, (S)—N-(2,2-Dimethyl-3-(1-isopropyl-1H-indazol-5-yl)-3-phenylpropyl)-2,2,2-trifluoroethanesulfonamide] | > 10000 | 33 |  |  |
| CC(C)CC(c1ccc2c(cnn2-c2ccc(F)cc2)c1)C(C)(C)CNC(=O)NC(C)(C)CN1CCOCC1 (stereo not shown) [Example 33, 1-(3-(1-(4-fluorophenyl)-1H-indazol-5-yl)-2,2,5-trimethylhexyl)-3-(2-methyl-1-morpholinopropan-2-yl)urea] | > 10000 | 74 |  |  |
| CC(C)n1ncc2cc([C@H](c3ccccc3)C(C)(C)CNC(=O)CC(F)(F)F)ccc21 [Example 86, (S)—N-(2,2-Dimethyl-3-(1-isopropyl-1H-indazol-5-yl)-3-phenylpropyl)-3,3,3-trifluoropropanamide] | > 10000 | 13 |  |  |
| CC(C)CC(c1ccc2c(cnn2-c2ccc(F)cc2)c1)C(C)(C)CNC(N)=O (stereo not shown) [Example 61, 1-(3-(1-(4-fluorophenyl)-1H-indazol-5-yl)-2,2,5-trimethylhexyl)urea] | 371 | 9.6 |  |  |
| CC(C)CC(c1ccc2c(cnn2-c2ccc(F)cc2)c1)C(C)(C)CNC(=O)N(C)C (stereo not shown) [Example 65, 3-(3-(1-(4-fluorophenyl)-1H-indazol-5-yl)-2,2,5-trimethylhexyl)-1,1-dimethylurea] |  | 1.4 |  |  |
| CC(C)CC(c1ccc2c(cnn2-c2ccc(F)cc2)c1)C(C)(C)CNC(=O)N[C@@H](C)CO (stereo partly drawn) [Example 47, 1-(3-(1-(4-fluorophenyl)-1H-indazol-5-yl)-2,2,5-trimethylhexyl)-3-((S)-1-hydroxypropan-2-yl)urea] | 204 |  |  | 1.3 |
| CC(C)CC(c1ccc2c(cnn2-c2ccc(F)cc2)c1)C(C)(C)CNC(=O)CC(C)(C)C (stereo not shown) [Example 66, N-(3-(1-(4-fluorophenyl)-1H-indazol-5-yl)-2,2,5-trimethylhexyl)-3,3-dimethylbutanamide] | 177 |  |  | 3 |
| CC(C)CC(c1ccc2c(cnn2-c2ccc(F)cc2)c1)C(C)(C)CNC(=O)OCC(C)(C)C (stereo not shown) [Example 62, neopentyl 3-(1-(4-fluorophenyl)-1H-indazol-5-yl)-2,2,5-trimethylhexylcarbamate] | > 10000 |  |  | 11 |
| CC(C)CC(c1ccc2c(cnn2-c2ccc(F)cc2)c1)C(C)(C)CNC(=O)N1CCC[C@@H]1CO (stereo partly drawn) [Example 39, (2R)-N-(3-(1-(4-fluorophenyl)-1H-indazol-5-yl)-2,2,5-trimethylhexyl)-2-(hydroxymethyl)pyrrolidine-1-carboxamide] | > 10000 |  |  | 3.2 |
| CC(C)(CNC(=O)Nc1nccs1)C(C)(C)c1ccc2c(cnn2-c2ccc(F)cc2)c1 [Example 115, 1-(3-(1-(4-Fluorophenyl)-1H-indazol-5-yl)-2,2,3-trimethylbutyl)-3-(thiazol-2-yl)urea] | > 10000 |  |  | 16 |

Second part, the compound after the results:

| EC50 ([1]; Homo sapiens, A549, 7 h) [nM] | Ki [2] [nM] | EC50 ([1]; 7 hours) [nM] | Ki [3] [nM] | Compound |
| --- | --- | --- | --- | --- |
| 5870 | 7.8 |  |  | CC(C)(C(=O)c1cccs1)C(c1ccccc1)c1ccc2c(cnn2-c2ccc(F)cc2)c1 (stereo not shown) [Example 127] |
| > 10000 | 9.3 |  |  | CC(C)CC(c1ccc2c(cnn2-c2ccc(F)cc2)c1)C(C)(C)CNC(=O)CC(F)(F)F (single isomer, unassigned) [Example 59B, 3,3,3-trifluoro-N-(3-(1-(4-fluorophenyl)-1H-indazol-5-yl)-2,2,5-trimethylhexyl)propanamide] |
| > 10000 | 86 |  |  | O=C(CC(F)(F)F)NCC1CC1(c1ccccc1)c1ccc2c(cnn2-c2ccc(F)cc2)c1 (stereo not shown) [Example 88, 3,3,3-Trifluoro-N-((2-(1-(4-fluorophenyl)-1H-indazol-5-yl)-2-phenylcyclopropyl)methyl)propanamide] |
| > 10000 | 28 |  |  | CC(C)(COC(=O)NCC(F)(F)F)C(c1ccccc1)c1ccc2c(cnn2-c2ccc(F)cc2)c1 (stereo not shown) [Example 132, 3-(1-(4-Fluorophenyl)-1H-indazol-5-yl)-2,2-dimethyl-3-phenylpropyl 2,2,2-trifluoroethylcarbamate] |
| > 10000 | 16 |  |  | CC(C)(C(c1ccccc1)c1ccc2c(cnn2-c2ccc(F)cc2)c1)C(C)(O)C(F)(F)F (mixture of isomers) [Example 128, 1,1,1-Trifluoro-4-(1-(4-fluorophenyl)-1H-indazol-5-yl)-2,3,3-trimethyl-4-phenylbutan-2-ol] |
| > 10000 | 20 |  |  | CC(C)(C(=O)C(F)(F)F)C(c1ccccc1)c1ccc2c(cnn2-c2ccc(F)cc2)c1 (stereo not shown) [Example 131, 1,1,1-Trifluoro-4-(1-(4-fluorophenyl)-1H-indazol-5-yl)-3,3-dimethyl-4-phenylbutan-2-one] |
| 29 | 16 |  |  | CCS(=O)(=O)NCC(C)(C)[C@@H](c1ccccc1)c1ccc2c(cnn2-c2ccc(F)cc2)c1 [Example 11, (S)-N-(3-(1-(4-fluorophenyl)-1H-indazol-5-yl)-2,2-dimethyl-3-phenylpropyl)ethanesulfonamide] |
|  | 14 | > 10000 |  | CC(C)CC(c1ccc2c(cnn2-c2ccc(F)cc2)c1)C(C)(C)CNC(=O)NCC(F)(F)F (single isomer, unassigned) [Example 58A, 1-(3-(1-(4-fluorophenyl)-1H-indazol-5-yl)-2,2,5-trimethylhexyl)-3-(2,2,2-trifluoroethyl)urea] |
| > 10000 | 43 |  |  | O=S(=O)(CC(F)(F)F)NCC1CC1(c1ccccc1)c1ccc2c(cnn2-c2ccc(F)cc2)c1 (stereo not shown) [Example 89, 2,2,2-trifluoro-N-((2-(1-(4-fluorophenyl)-1H-indazol-5-yl)-2-phenylcyclopropyl)methyl)ethanesulfonamide] |
| 271 |  |  | 8.1 | CC(C)CC(c1ccc2c(cnn2-c2ccc(F)cc2)c1)C(C)(C)CNC(=O)CC(C)(C)c1ccc(Cl)cc1 (stereo not shown) [Example 68, 3-(4-chlorophenyl)-N-(3-(1-(4-fluorophenyl)-1H-indazol-5-yl)-2,2,5-trimethylhexyl)-3-methylbutanamide] |
| 40 |  |  | 6.1 | CCCC(CNS(=O)(=O)CC(F)(F)F)C(c1ccccc1)c1ccc2c(cnn2-c2ccc(F)cc2)c1 (stereo not shown) [Example 99, 2,2,2-Trifluoro-N-(2-((1-(4-fluorophenyl)-1H-indazol-5-yl)(phenyl)methyl)pentyl)ethanesulfonamide] |
